System: Blumeria graminis f. sp. tritici; Synonym: Erysiphe graminis f. sp. tritici
Test: Wheat Powdery Mildew (ERYSGT) disease control
Type: in vivo
Details: 100 ppm, 1 Day Protectant
Procedure: Technical grades of materials were dissolved in acetone, which were then mixed with nine volumes of water containing 110 ppm Triton X-100. The fungicide solutions were applied onto wheat seedlings using an automated booth sprayer to run-off. All sprayed plants were allowed to air dry prior to further handling. All fungicides were evaluated using the aforementioned method for their activity vs. all target diseases. Wheat leaf blotch and brown rust activity were also evaluated using track spray applications, in which case the fungicides were formulated as EC formulations, containing 0.1% Trycol 5941 in the spray solutions. Wheat plants (variety Yuma) were grown from seed in a greenhouse in 50% mineral soil/50% soil-less Metro mix until the first leaf was fully emerged, with 7-10 seedlings per pot. These plants were inoculated with an aqueous spore suspension of Septoria tritici either prior to or after fungicide treatments. […] When disease symptoms were fully expressed on the 1st leaves of untreated plants, infection levels were assessed on a scale of 0 to 100 percent disease severity. Percent disease control was calculated using the ratio of disease severity on treated plants relative to untreated plants. […]

COc1ccnc(C(=O)N[C@H]2CCC[C@H](Cc3ccccc3)[C@@H](OCC(C)C)[C@H](C)OC2=O)c1OCOC(C)=O [Compound F106]
Disease Control ERYSGT 1 DP: A (80-100)

COc1ccnc(C(=O)N[C@H]2CCC[C@H](Cc3ccccc3)[C@@H](OCC(C)C)[C@H](C)OC2=O)c1OCOC(=O)C(C)C [Compound F151]
Disease Control ERYSGT 1 DP: A (80-100)

Source: patent publication US9265253B2, “Use of macrocyclic picolinamides as fungicides” (DOW AGROSCIENCES LLC, priority 2013, dated 2016)
